Data taken from patent publication US12409148B2, “Plant tissue-derived nanoparticles and food powders” (PSIGRYPH INC., priority 2018, dated 2025).
“Also recorded” adds a separate entry of the source.

Experiments:
[1] = system: Colorectal MDR cell line CRL 2158
Procedure: (§1) Cell culture: Three cell lines derived from colon, CRL 1790, a normal cell line, HT 29, a colorectal cancer cell line and CRL 2158 a multidrug resistant colorectal cancer cell line (ATCC) were used to evaluate the cytotoxicity of nanocomplexes. Cells were cultured in media specifically recommended for each cell line. For HT 29, the medium used was DMEM (Dulbecco's modified Eagle's medium, Sigma), for CRL 2158, the medium used was RPMI, and for CRL 1790, the medium used was EMEM (Eagle's minimum essential medium; Cedarlane Labs, Burlington, ON, Canada). All the media were supplemented with FBS, Penicillin/streptomycin, and L-glutamine. At confluency (˜80%), cells were washed with 1×PBS twice. Cells were incubated with trypsin-EDTA for 5 minutes and then diluted in respective media supplemented with 10% FBS before staining with trypan blue (50 ul of cells and 450 ul of trypan blue) and counting viable cells to evaluate cytotoxicity. The cytotoxicity was determined by trypan blue exclusion by living cells and blue staining of dead cells. The number of dead cells in a unit area was counted and expressed as a percentage of total cells in the area. […]

[2] = system: Normal Cell Line CRL 1790
Procedure: as §1

[3] = DPPH radical scavenging capacity of food powder; assay type: biochemical; details: positive control at same concentrations as polyphenols
CRL 1790 cells = test: Calcein uptake by confocal microscopy; assay type: cell-based, human
Procedure: (§2) Calcein uptake into HT 29, CRL 1790 cells: Uptake of calcein-loaded nanoparticles into mammalian cells. Calcein by itself is impermeable through membrane, and may be taken up at a low level by endocytosis. Ethanol-bleached cherry was homogenized in water, also containing 1 mg/g fresh weight equivalent of calcein, and the supernatant dialyzed against water. Calcein complexed to nanofilaments is retained within the dialysis bag, and used for uptake measurements by confocal microscopy.
(§3) Studies were also performed to investigate use of nanofibres as delivery vehicles for a cargo of interest, where the cargo was non-covalently complexed with the nanofibres. In this study, nanofibres were used for cellular delivery of calcein. […]
(§4) Uptake of complexed molecules by nanofibres: Nanofibres are extremely long (micrometers in length, ˜5 nm in diameter; see FIG. 37, for example), and their ability to cross the plasma membrane was investigated. […] HT-29 and CRL-1790 cells were incubated in the presence of calcein alone, and calcein-complexed nanofibres (of equal fluorescence intensity). Uptake of calcein and calcein complexed with nanofibres were monitored by confocal microscopy. […] Similar experiments were also conducted with nanoparticles, however, because of quenching of fluorescence by polyphenols, successful acquisition of images was not achieved.

HT 29 cells = test: Calcein uptake by confocal microscopy; assay type: cell-based, human
Procedure: as §2, §3, §4

SMILES: CC(=O)O[C@H]1C(=O)[C@@]2(C)[C@H]([C@H](OC(=O)c3ccccc3)[C@]3(O)C[C@H](OC(=O)[C@H](O)[C@@H](NC(=O)c4ccccc4)c4ccccc4)C(C)=C1C3(C)C)[C@]1(OC(C)=O)CO[C@@H]1C[C@@H]2O [Paclitaxel, paclitaxel]
- cytotoxicity (in words) [1]: low level of cytotoxicity
- cytotoxicity (in words) [2]: low level of cytotoxicity

SMILES: Cc1c(C)c2c(c(C)c1O)CCC(C)(C(=O)O)O2 (centres unmarked) [Trolox]
- TEAC value [3]: 1

SMILES: O=C(O)CN(CC(=O)O)Cc1cc2c(cc1O)Oc1cc(O)c(CN(CC(=O)O)CC(=O)O)cc1C21OC(=O)c2ccccc21 [calcein]
- uptake of calcein into cells (CRL 1790 cells): comparatively very low
- uptake of calcein into cells (HT 29 cells): comparatively very low; also recorded: Far reduced uptake
